Assay results from US9981940B2, “Aryl sulfide derivatives and aryl sulfoxide derivatives as acaricides and insecticides” (BAYER CROPSCIENCE AKTIENGESELLSCHAFT, priority 2013, dated 2018).

Key:
Tetranychus urticae = Tetranychus urticae spray test, OP-resistant (TETRUR); format: in vivo; details: after 6 days
How it was run: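 Mortality as % efficacy (0% = no mites killed) read 6 days after spraying. Formulation: active ingredient in acetone/dimethylformamide plus emulsifier, diluted with emulsifier-containing water, applied to Phaseolus vulgaris leaf discs carrying every life stage of OP-resistant spider mites.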

[1] = log P by HPLC (OECD Guideline 117), method [b] neutral range; format: physicochemical; details: HPLC; for logP[b]: method [b] neutral range
Procedure: (§1) The log P values were determined analogously to OECD Guideline 117 (EC Directive 92/69/EEC) by HPLC (high-performance liquid chromatography) using reversed-phase columns (C 18), by the following methods:
[b] The LC-MS determination in the neutral range is effected at pH 7.8 with 0.001 molar aqueous ammonium hydrogencarbonate solution and acetonitrile as eluents; linear gradient from 10% acetonitrile to 95% acetonitrile.

[2] = log P by HPLC (OECD Guideline 117), method [a] acidic range; format: physicochemical; details: for chromatographic logP: reversed-phase C18 HPLC column, acidic range; for logP[a]: HPLC, method [a] acidic range
Procedure: as §1
[a] The LC-MS determination in the acidic range is effected at pH 2.7 with 0.1% aqueous formic acid and acetonitrile (contains 0.1% formic acid) as eluents; linear gradient from 10% acetonitrile to 95% acetonitrile.

| Compound | pest or weed control at 500 g/ha (Tetranychus urticae; Tetranychus urticae, 144 h, application rate of 500 g/ha, read-out: efficacy) [%] | chromatographic logP ([1]; reversed-phase C18 HPLC column, neutral range, pH 7.8) | chromatographic logP ([2]; pH 2.7, HPLC method [a], read-out: logP[a]) | chromatographic logP ([2]; pH 2.7, HPLC, pH 2.7, read-out: log P[a]) | efficacy (Tetranychus urticae; application rate of 500 g/ha) [%] | logP[b] [1] | logP[a] [2] | efficacy (Tetranychus urticae; application rate of 100 g/ha) [%] |
| --- | --- | --- | --- | --- | --- | --- | --- | --- |
| Cc1cc(F)c(-n2nc(S(C)(=O)=O)n(C)c2=O)cc1SCC(F)(F)F [Example 420, 2-{2-Fluoro-4-methyl-5-[(2,2,2-trifluoroethyl)sulphanyl]phenyl}-4-methyl-5-(methylsulphonyl)-2,4-dihydro-3H-1,2,4-triazol-3-one] | 90 | 2.77 | 2.7 | 2.7 | – | – | – | – |
| Cc1cc(F)c(-n2nc(-c3ccc(Cl)cc3)oc2=O)cc1SCC(F)(F)F [Example 458] | – | – | – | – | 100 | 4.78 | 4.85 | – |
| Cc1cc(F)c(-n2nc(Br)n(C)c2=O)cc1[S+]([O-])CC(F)(F)F (stereo not shown) [Example 433] | – | – | – | – | 100 | 1.99 | 2.02 | – |
| C=CCn1c(SCCC)nn(-c2cc(SCC(F)(F)F)c(C)cc2F)c1=O [Example 427] | – | – | – | – | 90 | 4.37 | 4.45 | – |
| CCCc1nn(-c2cc(SCC(F)(F)F)c(C)cc2F)c(=O)n1C1CC1 [Example 79] | – | – | – | – | 100 | 3.56 | 3.64 | – |
| CC(C)(C)COc1nn(-c2cc([S+]([O-])CC(F)(F)F)c(Cl)cc2Cl)c(=O)n1C1CC1 (stereo not shown) [Example 405] | – | – | – | – | 90 | 4.18 | 4.36 | – |
| C=CCn1c([S+]([O-])CC)nn(-c2cc([S+]([O-])CC(F)(F)F)c(C)cc2F)c1=O (stereo not shown) [Example 424] | – | – | – | – | 90 | 2.04 | 2.05 | – |
| CCOCc1nn(-c2cc([S+]([O-])CC(F)(F)F)c(C)cc2F)c(=O)n1C1CC1 (racemic) [Example 74] | – | – | – | – | 100 | 2.25 | 2.31 | – |
| CCOCc1nn(-c2cc(SCC(F)(F)F)c(C)cc2F)c(=O)n1C1CC1 [Example 73] | – | – | – | – | 90 | 3.27 | 3.33 | – |
| COCCn1c(C(F)(F)F)nn(-c2cc(SCC(F)(F)F)c(C)cc2F)c1=O [Example 89] | – | – | – | – | 100 | 3.73 | 3.80 | – |
| CCC(C)c1nn(-c2cc(SCC(F)(F)F)c(C)cc2F)c(=O)n1C1CC1 (stereo not shown) [Example 85] | – | – | – | – | 100 | 3.94 | 4.01 | – |
| COc1nn(-c2cc([S+]([O-])CC(F)(F)F)c(C)cc2F)c(=O)n1C(C)C (stereo not shown) [Example 413] | – | – | – | – | 90 | 2.40 | 2.44 | – |
| C=CCSc1nn(-c2cc(SCC(F)(F)F)c(C)cc2F)c(=O)n1CC=C [Example 429] | – | – | – | – | 90 | 4.07 | 4.13 | – |
| C=CCn1c(SC(C)C)nn(-c2cc([S+]([O-])CC(F)(F)F)c(C)cc2F)c1=O (racemic) [Example 285] | – | – | – | – | 100 | 3.17 | 3.24 | – |
| Cc1cc(F)c(N2CC(OC(C)C)=CC2=O)cc1[S+]([O-])CC(F)(F)F (stereo not shown) [Example 325] | – | – | – | – | 100 | 2.43 | 2.46 | – |
| CCCOc1nn(-c2ccc(C)c([S+]([O-])CC(F)(F)F)c2)c(=O)n1C (stereo not shown) [Example 133] | – | – | – | – | 90 | 2.86 | 2.93 | – |
| O=c1n(-c2ccc(Cl)c(SCC(F)(F)F)c2)nc(C(F)(F)F)n1C1CC1 [Example 51] | – | – | – | – | 90 | 4.39 | 4.43 | – |
| Cc1cc(F)c(-n2nc(OCC(C)(C)C)n(C)c2=O)cc1[S+]([O-])CC(F)(F)F (stereo not shown) [Example 165] | – | – | – | – | 100 | 3.15 | 3.21 | – |
| Cc1cc(F)c(-n2nc(C(C)C)n(C3CC3)c2=S)cc1SCC(F)(F)F [Example 494] | – | – | – | – | 100 | 4.02 | 4.1 | – |
| Cc1cc(F)c(N2C(=O)C=C(Br)C2=O)cc1SCC(F)(F)F [Example 337] | – | – | – | – | 90 | 3.50 | 3.91 | – |
| CCn1c(Cl)nn(-c2cc([S+]([O-])CC(F)(F)F)c(C)cc2F)c1=O (stereo not shown) [Example 436] | – | – | – | – | 100 | 2.30 | 2.34 | – |
| COC1=CC(=O)N(c2cc([S+]([O-])CC(F)(F)F)c(Cl)cc2F)C1 (stereo not shown) [Example 324] | – | – | – | – | 100 | 2.11 | 2.13 | – |
| CCC[S+]([O-])c1nn(-c2cc(SCC(F)(F)F)c(C)cc2F)c(=O)n1C1CC1 (stereo not shown) [Example 236] | – | – | – | – | 90 | 2.98 | 3.05 | – |
| CCCCOc1nn(-c2cc(SCC(F)(F)F)c(C)cc2F)c(=O)n1C [Example 128] | – | – | – | – | 90 | 3.95 | 4.11 | – |

| Compound | pest or weed control at 500 g/ha (Tetranychus urticae; Tetranychus urticae, 144 h, application rate of 500 g/ha, read-out: efficacy) [%] | chromatographic logP ([1]; reversed-phase C18 HPLC column, neutral range, pH 7.8) | chromatographic logP ([2]; pH 2.7, HPLC method [a], read-out: logP[a]) | chromatographic logP ([2]; pH 2.7, HPLC, pH 2.7, read-out: log P[a]) | efficacy (Tetranychus urticae; application rate of 500 g/ha) [%] | logP[b] [1] | logP[a] [2] | efficacy (Tetranychus urticae; application rate of 100 g/ha) [%] |
| --- | --- | --- | --- | --- | --- | --- | --- | --- |
| COc1cc(F)c(-n2nc(OCC(C)(C)C)n(C3CC3)c2=O)cc1[S+]([O-])CC(F)(F)F (stereo not shown) [Example 403] | – | – | – | – | 100 | 3.44 | 3.50 | – |
| CNn1c(C2CC2)nn(-c2cc(SCC(F)(F)F)c(C)cc2F)c1=O [Example 199] | – | – | – | – | 100 | 3.07 | 3.15 | – |
| Cc1cc(C)c(-n2nnn(C(C)C)c2=O)cc1SCC(F)(F)F [Example 298] | – | – | – | – | 100 | 3.78 | 3.81 | – |
| CCC[S+]([O-])c1nn(-c2cc([S+]([O-])CC(F)(F)F)c(C)cc2F)c(=O)n1CC (stereo not shown) [Example 251] | – | – | – | – | 100 | 2.18 | 2.22 | – |
| CC(C)(C)COc1nn(-c2cc([S+]([O-])CC(F)(F)F)c(Cl)cc2F)c(=O)n1C1CC1 (stereo not shown) [Example 402] | – | – | – | – | 90 | 3.98 | 4.13 | – |
| Cc1cc(F)c(-n2nc(C3CC3)n(N)c2=O)cc1[S+]([O-])CC(F)(F)F (stereo not shown) [Example 206] | – | – | – | – | 100 | 1.72 | 1.75 | – |
| CCOc1nn(-c2ccc(C)c(SCC(F)(F)F)c2)c(=O)n1C [Example 130] | – | – | – | – | 90 | 3.74 | 3.77 | – |
| Cc1cc(F)c(-n2nc(C3CC3)n(C3CC3)c2=O)cc1SCC(F)(F)F [Example 65] | – | – | – | – | 100 | 3.33 | 3.39 | – |
| Cc1cc(F)c(-n2nc(C3CCC3)n(C3CC3)c2=O)cc1[S+]([O-])CC(F)(F)F (racemic) [Example 88] | – | – | – | – | 100 | 2.66 | 2.72 | – |
| COc1cc(F)c(-n2nc(OCC(F)(F)F)n(C3CC3)c2=O)cc1SCC(F)(F)F [Example 188] | – | – | – | – | – | 3.46 | 3.49 | 90 |
| CCCn1c(OC)nn(-c2cc(SCC(F)(F)F)c(C)cc2F)c1=O [Example 389] | – | – | – | – | 90 | 3.46 | 3.53 | – |
| Cc1cc(F)c(-n2nc(SCC(F)F)n(C3CC3)c2=O)cc1[S+]([O-])CC(F)(F)F (stereo not shown) [Example 256] | – | – | – | – | 90 | 2.69 | 2.73 | – |
| Cc1cc(F)c(-n2nc(OCC3CC3)n(C)c2=O)cc1SCC(F)(F)F [Example 143] | – | – | – | – | 90 | 3.58 | 3.66 | – |
| COc1nn(-c2cc(SCC(F)(F)F)c(Cl)cc2F)c(=O)n1C1CC1 [Example 114] | – | – | – | – | 100 | 3.27 | 3.32 | – |
| Cc1cc(F)c(-n2nc(SCC3CC3)n(C)c2=O)cc1SCC(F)(F)F [Example 279] | – | – | – | – | 100 | 3.83 | 3.91 | – |
| CCCCOc1nn(-c2cc(SCC(F)(F)F)c(C)cc2F)c(=O)n1C1CC1 [Example 125] | – | – | – | – | 90 | 4.35 | 4.41 | – |
| COc1cc(F)c(-n2nc(OCC(C)(C)C)n(C3CC3)c2=O)cc1SCC(F)(F)F [Example 395] | – | – | – | – | 100 | 4.32 | 4.38 | – |
| CCSc1nn(-c2cc(SCC(F)(F)F)c(C)cc2F)c(=O)n1C1CC1 [Example 261] | – | – | – | – | 100 | 4.03 | 3.99 | – |
| CCc1nn(-c2cc(SCC(F)(F)F)c(C)cc2F)c(=O)n1-c1cccnc1 [Example 348] | – | – | – | – | 90 | 2.87 | 2.91 | – |
| Cc1cc(F)c(-n2nc(C(C)(C)C)n(C3CC3)c2=O)cc1SCC(F)(F)F [Example 63] | – | – | – | – | 100 | 4.11 | 4.17 | – |
| Cc1cc(F)c(-n2ncn(-c3ccccc3)c2=O)cc1[S+]([O-])CC(F)(F)F (racemic) [Example 357] | – | – | – | – | 90 | 2.36 | 2.38 | – |
| CCOc1nn(-c2cc(SCC(F)(F)F)c(C)cc2F)c(=O)n1C [Example 129] | – | – | – | – | 90 | 3.14 | 3.19 | – |
| CC(C)(C)COc1nn(-c2cc(SCC(F)(F)F)c(Cl)cc2Cl)c(=O)n1C1CC1 [Example 397] | – | – | – | – | 100 | 5.04 | 5.12 | – |
| COCc1nn(-c2cc([S+]([O-])CC(F)(F)F)c(C)cc2F)c(=O)n1N (stereo not shown) [Example 207] | – | – | – | – | 100 | 1.45 | 1.47 | – |
